Experimental data as given in US11819514B2, “Use of oligosaccharide riclinoctaose in preparation of drug for treating and/or preventing ischemia-reperfusion injury (IRI)” (Nanjing Southern Element Biotechnology Co., Ltd., priority 2021, dated 2023).
Entries after “also recorded” stand apart in the source; their conditions may differ.

Columns and labels:
intestinal microflora = conditions: cited from earlier work
male C57/BL6J mice [1] = assay: HIRI mouse model: histological analysis of liver (H&E); type: in vivo
Procedure: (§1) The experimental animals were male C57/BL6J mice aged 6 to 8 weeks and weighed 22 g to 26 g. The mice were housed under standard experimental conditions with a 12-hour light-12-hour dark cycle with free access to water and food. The mice were anesthetized with isoflurane, the abdomen was operated on, and the blood supply to middle and left lobes of the liver was blocked with non-invasive hemostatic clips, resulting in 70% hepatic ischemia; after 30 min of ischemia, the clips were removed, and samples were collected to measure biochemical parameters after reperfusion for 6 h.
The mice were administered by intraperitoneal injection and randomly divided into four groups; a first group was a sham-operation group (sham), the animals in the sham-operation group received the same laparotomy without vascular clip occlusion; a second group was a model group (IR); a third group was a low-dosage group (LRO), with 20 mg/mL of the oligosaccharide riclinoctaose injected intraperitoneally about 4 h to 6 h before surgery; and a fourth group was a high-dosage group (HRO), with 40 mg/mL of the oligosaccharide riclinoctaose injected intraperitoneally about 4 h to 6 h before surgery. The oligosaccharide riclinoctaose drug was dissolved in a 0.9% normal saline. […]

[2] = cited from earlier work
male C57/BL6J mice [3] = assay: RIRI mouse model: histological analysis of kidney (H&E, PAS); type: in vivo; conditions: vs model group
Text: (§2) The experimental animals were male C57/BL6J mice aged 6 to 8 weeks and weighed 22 g to 26 g; the mice were anesthetized with isoflurane, and the abdomen was operated on, and after the righting reflex disappeared, the mice were placed in a prone position on a mouse dissection table and fixed; under sterile conditions, the abdominal cavity was opened along a 1.5 cm longitudinal incision on both dorsal sides, the muscles were bluntly separated, and the renal pedicles on both sides were exposed; the blood flow was blocked with a non-invasive vascular clip, and the kidneys turned from red to dark purple, indicating successful ischemia. After 30 min of ischemia, the arterial clips were released, and the abdominal cavity was closed after the kidneys were restored to perfusion; after 24 h, samples were collected to measure biochemical indicators, and an RIRI model was established.
(§3) The mice were administered by intraperitoneal injection and randomly divided into four groups; a first group was a sham-operation group (sham), the animals in the sham-operation group received the same laparotomy without vascular clip occlusion; a second group was a model group (IR); a third group was a low-dosage group (LRO), with 20 mg/mL of the oligosaccharide riclinoctaose injected intraperitoneally about 4 h to 6 h before surgery; and a fourth group was a high-dosage group (HRO), with 40 mg/mL of the oligosaccharide riclinoctaose injected intraperitoneally about 4 h to 6 h before surgery. The oligosaccharide riclinoctaose drug was dissolved in a 0.9% normal saline.
Histomorphological changes in mouse kidneys were analyzed by H&E staining and PAS staining. The resected kidney tissue was immediately fixated with buffered 4% paraformaldehyde (in a PBS buffer) for histological analysis, embedded in paraffin, and sections were stained with by H&E or PAS. The necrosis and structural damages of nephrocytes were observed by a microscope.

male C57/BL6J mice [4] = assay: RIRI mouse model: plasma biochemical indicators (BUN, Creatinine, LDH); type: in vivo; conditions: i.p. 20 or 40 mg/mL 4 h to 6 h before surgery, 30 min ischemia, 24 h reperfusion
Text: as §2, with “established. […]” for “established.”
Whole blood was collected, allowed to coagulate naturally at a room temperature, centrifuged at 2,000 r/min for 10 min, and a supernatant was collected for the determination of BUN, Creatinine, and LDH. The plasma BUN, Creatinine and LDH concentrations of mice in each group were analyzed according to instructions of the plasma BUN, Creatinine, and LDH detection kits, followed by operation steps in kit instructions, and finally concentrations were determined by colorimetry at a wavelength of 510 nm or 440 nm.
Comparisons between multiple groups were statistically analyzed using a One-way ANOVA statistical method. […]

male C57/BL6J mice [5] = assay: HIRI mouse model: serum enzyme activity assay (ALT, AST, LDH); type: in vivo; conditions: i.p. 20 mg/mL (LRO) and 40 mg/mL (HRO) 4 h to 6 h before surgery, 30 min ischemia, 6 h reperfusion, vs model group
Procedure: as §1, §3
Whole blood was collected, allowed to coagulate naturally at a room temperature, centrifuged at 2,000 r/min for 10 min, and a supernatant was collected for the determination of ALT, AST and LDH enzyme activities. The activities of AST, ALT and LDH were determined by an enzyme colorimetric quantitative analysis method, according to operation steps in kit instructions, and finally concentrations were determined by colorimetry at a wavelength of 505 nm or 440 nm.
(§4) Comparisons between multiple groups were statistically analyzed using a One-way ANOVA statistical method. P<0.05 was considered to have a significant effect.

male C57/BL6J mice [6] = assay: CIRI (MCAO) mouse model: neurofunctional scoring (mNSS, Longa); type: in vivo
Text: The experimental animals were male C57/BL6J mice aged 6 to 8 weeks and weighed 22 g to 26 g. Mice were anesthetized with isoflurane and placed on a supine heating pad. The skin was disinfected with iodine and 75% ethanol. A midline neck incision is made to expose the carotid artery […]. An external carotid artery (ECA) was isolated and occluded with two knots. An internal carotid artery (ICA) was isolated, and the MCA and ICA were clamped with microvascular clips. A small hole was cut in the ECA between the knot and a bifurcation point. A silicone rubber-coated, 30-mm-long, and 0.11-mm-diameter middle cerebral artery occlusion (MCAO) tether was introduced into the ICA. The artery was opened while sutures were inserted to block the blood vessel. A third knot on the ICA was closed and the suture was secured in a proper place. The mouse abdominal cavity was sutured, and the mice were placed in a heated cage for 30 min, and the wound was closed using small suture clips. The third knot was loosened, the filament was removed, and reperfusion was conducted for 24 h. The skin was closed and the mice were returned to individual cages.
as §3, with “neck incision” for “laparotomy”, “suture blockage;” for “clip occlusion;”
Neurofunctional scoring: the neurobehavioral functions were assessed using mNSS and Longa scores. The mNSS assessed neurological deficits through motor, reflex, sensory, and balance tests. Scores ranged from 0 (indicating no neurological deficit) to 18 (indicating the most severely-injured animal). The Longa score was determined as follows: 0 points, no neurological deficit; 1 point, the animals were unable to fully extend the contralateral forelimbs; 2 points, there was a tail scratching phenomenon when walking (circling to the opposite side); 3 points, a standing posture was unstable, falling to the opposite side; and 4 points, there was no spontaneous walking and loss of consciousness. A score of 0 to 2 was classified as mild nerve injury, while a score of 3 to 4 was classified as severe nerve injury.
as §4

[7] = i.p. injection before surgery, 30 min occlusion, 24 h reperfusion, vs model group

Substance: D-Glcp(4,6-pyr)-β-(1→3)-D-Glcp-β-(1→3)-D-Glcp-β-(1→6)-D-Glcp-β-(1→6)-D-Glcp-β-(1→4)-D-Glcp-β-(1→4)-D-Glcp-β-(1→3)-D-Galp [oligosaccharide riclinoctaose]
- effect on intestinal microflora as a prebiotic (intestinal microflora): significantly improve the intestinal microflora
- necrotic area of liver parenchyma cells (H&E staining) (male C57/BL6J mice [1]; i.p. 20 and 40 mg/mL before surgery, 6 h reperfusion): reduction of a necrotic area of liver parenchyma cells
- liver tissue morphology / degree of damages (H&E staining) (male C57/BL6J mice [1]; treatment groups compared with sham-operation and model groups): the treatment groups and the sham-operation group have the closest tissue morphology, indicating a lesser degree of damages
- water solubility [2]: desirable water solubility
- area of cell necrosis in kidney (H&E staining) (male C57/BL6J mice [3]): the area of cell necrosis is reduced
- brush border shedding of renal tubule cells and degree of cell necrosis (PAS staining) (male C57/BL6J mice [3]): significantly reduced
- infiltration of inflammatory factors in kidney (H&E staining) (male C57/BL6J mice [3]): the infiltration of inflammatory factors is also reduced
- plasma BUN (male C57/BL6J mice [4]): significantly decreased
- plasma Creatinine (male C57/BL6J mice [4]): significantly decreased
- plasma LDH (male C57/BL6J mice [4]): significantly decreased
- ALT activity in serum (male C57/BL6J mice [5]): decrease the AST, ALT and LDH values in a dosage-dependent manner; also recorded: significant reduction of ALT, AST, LDH activities in serum
- AST activity in serum (male C57/BL6J mice [5]): decrease the AST, ALT and LDH values in a dosage-dependent manner; also recorded: significant reduction of ALT, AST, LDH activities in serum
- LDH activity in serum (male C57/BL6J mice [5]): decrease the AST, ALT and LDH values in a dosage-dependent manner; also recorded: significant reduction of ALT, AST, LDH activities in serum
- neurobehaviour, low-dosage group (LRO) (male C57/BL6J mice [6]; 20 mg/mL i.p. 4 h to 6 h before surgery): cannot fully extend the contralateral forelimbs, the mice are not as severe as those in the model group
- neurobehaviour, high-dosage group (HRO) (male C57/BL6J mice [6]; 40 mg/mL i.p. 4 h to 6 h before surgery): behave similarly to those in the sham-operation group (sham) without neurological deficits
- neurological deficit by Longa score (male C57/BL6J mice [6]; [7]): the neurological deficit of mice can be significantly reduced
- neurological deficit by mNSS (male C57/BL6J mice [6]; [7]): the neurological deficit of mice can be significantly reduced
